Laboratory results: patent US20200079765A1, “SUBSTITUTED HETEROARYL PYRROLONES AND SALTS THEREOF AND USE THEREOF AS HERBICIDAL ACTIVE SUBSTANCES” (Bayer CropScience Aktiengesellschaft, priority 2016, published 2020)

Legend:
Ipomoea purpurea = assay: Post-emergence herbicidal action (Experimental Part 1, A); format: in vivo; conditions: rated visually after about 3 weeks
Experimental: (§1) Seeds of monocotyledonous and dicotyledonous weeds and crop plants were placed in sandy loam in plastic or wood-fiber pots, covered with soil and cultivated in a greenhouse under controlled growth conditions. 2 to 3 weeks after sowing, the test plants were treated at the one-leaf stage. The compounds of the invention, formulated in the form of wettable powders (WP) or as emulsion concentrates (EC), were then sprayed onto the green parts of the plants as aqueous suspension or emulsion with addition of 0.5% additive at a water application rate of 600 l/ha (converted). After the test plants had been kept in the greenhouse under optimum growth conditions for about 3 weeks, the activity of the preparations was rated visually in comparison to untreated controls. For example, 100% activity=the plants have died, 0% activity=like control plants. Tables A1 to A14 below show the effects of selected compounds of the general formula (I) according to Tables I.1 to I.116 on various harmful plants and an application rate corresponding to 1280 g/ha or 320 g/ha, which were obtained by the experimental procedure mentioned above.

Hordeum murinum = assay: as above; format: in vivo; conditions: application rate 1280 g/ha, rated visually after about 3 weeks
Experimental: as §1

Echinochloa crus-galli = assay: as above; format: in vivo; conditions: about 3 weeks after treatment, 100% = plants have died, 0% = like control plants
Experimental: as §1

Setaria viridis = assay: as above; format: in vivo; conditions: about 3 weeks after treatment, 100% = plants have died, 0% = like control plants
Experimental: as §1

Polygonum convolvulus = assay: as above; format: in vivo; conditions: rated visually after about 3 weeks
Experimental: as §1

Veronica persica = assay: as above; format: in vivo; conditions: application rate 1280 g/ha, about 3 weeks after treatment, 100% = plants have died, 0% = like control plants
Experimental: as §1

Abutilon theophrasti = assay: as above; format: in vivo; conditions: about 3 weeks after treatment, 100% = plants have died, 0% = like control plants
Experimental: as §1

Amaranthus retroflexus = assay: as above; format: in vivo; conditions: about 3 weeks after treatment, 100% = plants have died, 0% = like control plants
Experimental: as §1

Stellaria media = assay: as above; format: in vivo; conditions: rated visually after about 3 weeks
Experimental: as §1

Matricaria inodora = assay: as above; format: in vivo; conditions: rated visually after about 3 weeks
Experimental: as §1

Avena fatua = assay: as above; format: in vivo; conditions: rated visually after about 3 weeks
Experimental: as §1

Viola tricolor = assay: as above; format: in vivo; conditions: rated visually after about 3 weeks
Experimental: as §1

Alopecurus myosuroides = assay: as above; format: in vivo; conditions: about 3 weeks after treatment, 100% = plants have died, 0% = like control plants
Experimental: as §1

photosystem II (PS II) = target: T1, photosystem II (PS II) (Spinacia oleracea, UniProt P69560); assay: Measurement of the PS II activity in thylakoid membranes (DCPIP reduction, Experimental Part 3, Table E1); format: biochemical; conditions: spinach thylakoid membranes
T1 construct: the chloroplasts were osmotically ruptured and the thylakoid membranes were then obtained by centrifugation; from tissue; host or cells: thylakoid membranes from fresh spinach leaves
Procedure, shortened: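 Spinach leaf thylakoid membranes in 50 mM phosphate pH 6.8, 10 mM KCl, 120 μM DCPIP, under light. Compounds added from 100 μM DMSO solution (2.5% DMSO final). DCPIP reduction read as absorbance decrease at 595 nm over 10 min at 22 °C, reported as percent-inhibition classes.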

SMILES	Ipomoea purpurea, herbicidal activity (Ipomoea purpurea; application rate 1280 g/ha) [%]	Hordeum murinum, herbicidal activity (Hordeum murinum) [%]	herbicidal activity on Echinochloa crus-galli (visual rating vs untreated controls) (Echinochloa crus-galli; application rate 1280 g/ha) [%]	herbicidal activity on Setaria viridis (visual rating vs untreated controls) (Setaria viridis; application rate 320 g/ha) [%]	herbicidal activity on Setaria viridis (visual rating vs untreated controls) (Setaria viridis; application rate 1280 g/ha) [%]	Polygonum convolvulus, herbicidal activity (Polygonum convolvulus; application rate 320 g/ha) [%]	Polygonum convolvulus, herbicidal activity (Polygonum convolvulus; application rate 1280 g/ha) [%]	herbicidal activity on Veronica persica (visual rating vs untreated controls) (Veronica persica) [%]	herbicidal activity on Abutilon theophrasti (visual rating vs untreated controls) (Abutilon theophrasti; application rate 320 g/ha) [%]	herbicidal activity on Abutilon theophrasti (visual rating vs untreated controls) (Abutilon theophrasti; application rate 1280 g/ha) [%]	herbicidal activity on Amaranthus retroflexus (visual rating vs untreated controls) (Amaranthus retroflexus; application rate 1280 g/ha) [%]	Stellaria media, herbicidal activity (Stellaria media; application rate 320 g/ha) [%]	Stellaria media, herbicidal activity (Stellaria media; application rate 1280 g/ha) [%]	Matricaria inodora, herbicidal activity (Matricaria inodora; application rate 1280 g/ha) [%]	Avena fatua, herbicidal activity (Avena fatua; application rate 1280 g/ha) [%]	Viola tricolor, herbicidal activity (Viola tricolor; application rate 320 g/ha) [%]	Viola tricolor, herbicidal activity (Viola tricolor; application rate 1280 g/ha) [%]	herbicidal activity on Alopecurus myosuroides (visual rating vs untreated controls) (Alopecurus myosuroides; application rate 320 g/ha) [%]	herbicidal activity on Alopecurus myosuroides (visual rating vs untreated controls) (Alopecurus myosuroides; application rate 1280 g/ha) [%]	Effect (inhibition of PS II activity) (photosystem II (PS II))	further results
CC1=CC(=O)N(c2cc(C(C)(C)C)on2)C1O (stereo not drawn) [I.1-162, 5-Hydroxy-4-methyl-1-(5-tert-butyl-1,2-isoxazol-3-yl)-1,5-dihydro-2H-pyrrol-2-one]	100	100	100	100	100	100	100	100	100	100	100	100	100	100	100	100	100	90	100	++++ (inhibition≥90%)	Ipomoea purpurea, herbicidal activity (Ipomoea purpurea; application rate 320 g/ha): 100%; herbicidal activity on Echinochloa crus-galli (visual rating vs untreated controls) (Echinochloa crus-galli; application rate 320 g/ha): 100%; herbicidal activity on Amaranthus retroflexus (visual rating vs untreated controls) (Amaranthus retroflexus; application rate 320 g/ha): 100%; Matricaria inodora, herbicidal activity (Matricaria inodora; application rate 320 g/ha): 100%; Avena fatua, herbicidal activity (Avena fatua; application rate 320 g/ha): 90%
CCC(=O)OC1C(C)=CC(=O)N1c1cc(C(C)(C)C)on1 (stereo not drawn) [I.5-162]	90	100	100	100	100	100	100	100	100	100	100	100	100	100	100	100	100	90	100	+++ (90%>inhibition≥70%)	–
